Common to all, as to assay: cell-based
Assay [1] deals with T1, hNav1.5 (Homo sapiens, UniProt Q14524). The note with it: IonWorks Quattro; read-out: IC50 Nav1.5.
The next assay has as its target hNav1.3 (Homo sapiens, UniProt Q9NY46). As to conditions: IonWorks Quattro; read-out: IC50 Nav1.3.
The target in assay [2] is T2, hNav1.7 (Homo sapiens, UniProt Q15858). As to conditions: IonWorks Quattro; read-out: IC50 Nav1.7.
Assay [3] has as its target T3, hNav1.4 (Homo sapiens, UniProt P35499). The note with it: for IC50: IonWorks Quattro, read-out: IC50 Nav1.4; for Nav1.4/Nav1.7: ratio of IonWorks Quattro IC50 values.
Assay [4] addresses T3, hNav1.4.
For assay [5], the target named is T1, hNav1.5.
Assay [6] has as its target T2, hNav1.7. The class given is cell-based. As to conditions: PatchXpress, tonic block; read-out: PX hNav1.7 Tonic IC50.

Several values for one entry are separate records, joined by “and”; a condition that tells them apart may be missing. Equal entries are not always repeated. Where two headings read alike, the source gives them in different places.

T3 sequence (P35499 whole entry): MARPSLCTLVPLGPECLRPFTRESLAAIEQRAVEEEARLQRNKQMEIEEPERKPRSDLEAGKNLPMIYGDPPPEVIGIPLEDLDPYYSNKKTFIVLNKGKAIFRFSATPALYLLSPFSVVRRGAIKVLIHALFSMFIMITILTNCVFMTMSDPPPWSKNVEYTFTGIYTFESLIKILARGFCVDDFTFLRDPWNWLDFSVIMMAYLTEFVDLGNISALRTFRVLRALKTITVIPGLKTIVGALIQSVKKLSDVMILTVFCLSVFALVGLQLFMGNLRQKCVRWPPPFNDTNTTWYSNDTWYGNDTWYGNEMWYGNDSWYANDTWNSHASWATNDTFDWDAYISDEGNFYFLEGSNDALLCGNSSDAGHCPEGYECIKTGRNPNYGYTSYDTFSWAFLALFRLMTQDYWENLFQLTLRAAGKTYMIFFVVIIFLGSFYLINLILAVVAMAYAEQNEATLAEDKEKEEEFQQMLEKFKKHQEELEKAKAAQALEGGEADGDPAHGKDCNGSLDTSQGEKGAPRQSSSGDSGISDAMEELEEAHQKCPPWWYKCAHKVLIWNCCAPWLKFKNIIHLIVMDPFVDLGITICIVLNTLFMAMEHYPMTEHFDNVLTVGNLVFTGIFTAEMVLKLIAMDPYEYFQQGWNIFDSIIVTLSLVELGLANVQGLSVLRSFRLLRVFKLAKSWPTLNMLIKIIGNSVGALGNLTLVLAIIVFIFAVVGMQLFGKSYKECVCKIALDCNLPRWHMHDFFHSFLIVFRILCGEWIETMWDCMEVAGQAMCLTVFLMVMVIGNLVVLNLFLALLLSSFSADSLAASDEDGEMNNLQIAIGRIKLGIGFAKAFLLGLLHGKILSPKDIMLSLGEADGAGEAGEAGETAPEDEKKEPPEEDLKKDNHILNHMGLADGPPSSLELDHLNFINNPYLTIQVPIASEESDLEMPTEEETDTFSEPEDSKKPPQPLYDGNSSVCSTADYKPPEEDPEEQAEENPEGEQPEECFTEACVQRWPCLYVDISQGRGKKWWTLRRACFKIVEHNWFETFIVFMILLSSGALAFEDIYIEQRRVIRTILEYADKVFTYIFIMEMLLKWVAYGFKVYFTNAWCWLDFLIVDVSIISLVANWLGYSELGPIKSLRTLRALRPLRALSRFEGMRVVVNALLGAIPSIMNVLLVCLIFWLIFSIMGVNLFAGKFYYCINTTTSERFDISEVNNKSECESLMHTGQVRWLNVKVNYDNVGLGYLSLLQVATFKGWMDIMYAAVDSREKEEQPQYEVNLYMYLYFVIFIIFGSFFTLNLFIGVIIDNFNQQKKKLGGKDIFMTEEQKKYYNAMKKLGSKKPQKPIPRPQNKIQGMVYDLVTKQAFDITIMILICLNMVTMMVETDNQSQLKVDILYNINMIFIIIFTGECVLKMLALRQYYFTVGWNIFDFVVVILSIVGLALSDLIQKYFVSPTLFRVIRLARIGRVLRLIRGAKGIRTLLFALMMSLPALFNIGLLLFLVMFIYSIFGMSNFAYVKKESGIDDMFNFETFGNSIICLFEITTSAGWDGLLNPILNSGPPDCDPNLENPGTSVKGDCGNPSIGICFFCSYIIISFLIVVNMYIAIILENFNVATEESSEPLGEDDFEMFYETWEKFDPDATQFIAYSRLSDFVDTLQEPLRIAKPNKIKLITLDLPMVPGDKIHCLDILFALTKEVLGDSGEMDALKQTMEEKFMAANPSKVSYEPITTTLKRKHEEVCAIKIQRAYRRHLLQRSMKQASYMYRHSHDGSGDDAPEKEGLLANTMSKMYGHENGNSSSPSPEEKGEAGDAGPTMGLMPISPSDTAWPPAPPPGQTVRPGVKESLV
Sequence of hNav1.3 (Q9NY46 whole entry): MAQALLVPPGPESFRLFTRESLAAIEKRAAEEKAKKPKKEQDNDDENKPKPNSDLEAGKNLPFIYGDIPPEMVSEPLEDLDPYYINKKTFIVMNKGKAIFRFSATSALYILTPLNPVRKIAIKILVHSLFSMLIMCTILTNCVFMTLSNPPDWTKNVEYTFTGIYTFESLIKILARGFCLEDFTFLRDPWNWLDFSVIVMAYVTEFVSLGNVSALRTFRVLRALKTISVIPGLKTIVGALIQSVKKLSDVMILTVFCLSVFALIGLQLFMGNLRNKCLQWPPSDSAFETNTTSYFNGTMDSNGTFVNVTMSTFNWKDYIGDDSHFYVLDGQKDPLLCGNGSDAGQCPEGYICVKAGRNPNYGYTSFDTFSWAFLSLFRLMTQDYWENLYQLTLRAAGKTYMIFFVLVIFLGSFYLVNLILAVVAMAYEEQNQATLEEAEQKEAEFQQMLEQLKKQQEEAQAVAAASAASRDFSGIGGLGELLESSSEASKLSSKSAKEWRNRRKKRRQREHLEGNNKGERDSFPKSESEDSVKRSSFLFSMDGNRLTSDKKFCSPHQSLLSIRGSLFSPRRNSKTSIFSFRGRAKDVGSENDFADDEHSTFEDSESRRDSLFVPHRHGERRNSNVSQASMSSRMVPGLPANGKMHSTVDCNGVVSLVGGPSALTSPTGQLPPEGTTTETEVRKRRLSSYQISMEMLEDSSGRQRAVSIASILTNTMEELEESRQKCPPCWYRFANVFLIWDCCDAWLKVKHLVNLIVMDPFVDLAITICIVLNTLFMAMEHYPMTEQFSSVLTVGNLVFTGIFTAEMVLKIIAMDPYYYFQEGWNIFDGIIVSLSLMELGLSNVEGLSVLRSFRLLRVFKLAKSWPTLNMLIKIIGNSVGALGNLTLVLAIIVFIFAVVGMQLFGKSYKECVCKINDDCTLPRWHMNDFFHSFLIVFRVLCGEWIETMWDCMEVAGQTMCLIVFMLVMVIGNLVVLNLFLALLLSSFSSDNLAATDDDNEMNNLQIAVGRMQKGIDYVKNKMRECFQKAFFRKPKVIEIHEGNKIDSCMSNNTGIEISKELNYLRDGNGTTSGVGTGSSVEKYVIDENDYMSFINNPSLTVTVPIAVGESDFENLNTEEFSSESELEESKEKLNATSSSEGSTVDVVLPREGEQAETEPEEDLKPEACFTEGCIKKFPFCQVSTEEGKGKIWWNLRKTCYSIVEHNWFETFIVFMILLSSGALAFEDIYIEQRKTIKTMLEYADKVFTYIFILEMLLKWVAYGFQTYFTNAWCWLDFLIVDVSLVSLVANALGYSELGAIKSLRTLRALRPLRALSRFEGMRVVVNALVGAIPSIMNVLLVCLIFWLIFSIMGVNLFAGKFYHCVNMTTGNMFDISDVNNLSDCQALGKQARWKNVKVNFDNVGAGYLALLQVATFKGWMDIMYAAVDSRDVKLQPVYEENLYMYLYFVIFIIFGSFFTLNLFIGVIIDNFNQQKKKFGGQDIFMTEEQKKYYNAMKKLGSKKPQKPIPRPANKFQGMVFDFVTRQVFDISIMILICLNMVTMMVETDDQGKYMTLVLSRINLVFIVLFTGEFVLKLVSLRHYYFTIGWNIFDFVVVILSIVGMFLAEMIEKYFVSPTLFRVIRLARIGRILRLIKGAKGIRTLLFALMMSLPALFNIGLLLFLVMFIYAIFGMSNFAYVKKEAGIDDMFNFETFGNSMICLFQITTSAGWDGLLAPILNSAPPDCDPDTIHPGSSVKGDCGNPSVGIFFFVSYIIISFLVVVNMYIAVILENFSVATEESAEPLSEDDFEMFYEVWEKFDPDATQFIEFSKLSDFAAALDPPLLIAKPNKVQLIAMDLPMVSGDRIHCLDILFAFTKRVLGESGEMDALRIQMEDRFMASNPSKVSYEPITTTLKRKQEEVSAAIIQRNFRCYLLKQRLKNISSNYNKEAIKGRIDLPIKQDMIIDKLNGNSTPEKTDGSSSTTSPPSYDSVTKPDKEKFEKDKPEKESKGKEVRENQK

On to `CC[C@H](C)[C@H](NC(=O)[C@@H](NC(=O)[C@H](CCCCN)NC(=O)[C@H](CCCNC(=N)N)NC(=O)[C@@H]1CSSC[C@@H]2NC(=O)[C@H](C)NC(=O)[C@H](CCCNC(=N)N)NC(=O)[C@H](CCCCN)NC(=O)[C@H](CO)NC(=O)[C@H](CC(=O)O)NC(=O)[C@@H]3CSSC[C@H](NC(=O)[C@H](CC(C)C)NC(=O)[C@H](CC(C)C)NC(=O)CNC(=O)[C@H](CCC(=O)O)NC(=O)[C@H](CSSC[C@H](NC(=O)[C@@H](N)Cc4ccc(O)cc4)C(=O)N[C@@H](CCC(N)=O)C(=O)N[C@@H](CCCCN)C(=O)N[C@@H](Cc4c[nH]c5ccccc45)C(=O)N[C@@H](CCSC)C(=O)N[C@@H](Cc4c[nH]c5ccccc45)C(=O)N[C@@H]([C@@H](C)O)C(=O)N3)NC2=O)C(=O)N[C@@H](CCCCN)C(=O)N[C@@H](CC(C)C)C(=O)N[C@@H](Cc2c[nH]c3ccccc23)C(=O)N1)[C@@H](C)CC)C(N)=O` [compound 119], for which the IC50 at hNav1.5 [1] came out at 8.3 µM; at hNav1.3, 2.51 µM; on hNav1.7 [2], 0.07 µM; at hNav1.4 [3], 1 µM. In addition, the Nav1.4/Nav1.7 on hNav1.4 [3] was 14.

Consider `CC[C@H](C)[C@H](NC(=O)[C@H](Cc1ccc(O)cc1)NC(=O)[C@H](CCCCN)NC(=O)[C@H](CCCNC(=N)N)NC(=O)[C@@H]1CSSC[C@@H]2NC(=O)[C@H](C)NC(=O)[C@H](CCCNC(=N)N)NC(=O)[C@H](CCCCN)NC(=O)[C@H](CO)NC(=O)[C@H](CC(=O)O)NC(=O)[C@@H]3CSSC[C@H](NC(=O)[C@H](CCC(=O)O)NC(=O)[C@H](CC(C)C)NC(=O)CNC(=O)[C@H](CCC(=O)O)NC(=O)[C@H](CSSC[C@H](NC(=O)[C@@H](N)Cc4ccc(O)cc4)C(=O)N[C@@H](CCC(N)=O)C(=O)N[C@@H](CCCCN)C(=O)N[C@@H](Cc4c[nH]c5ccccc45)C(=O)N[C@@H](CCSC)C(=O)N[C@@H](CO)C(=O)N[C@@H]([C@@H](C)O)C(=O)N3)NC2=O)C(=O)N[C@@H](CCCCN)C(=O)N[C@@H](CC(C)C)C(=O)N[C@@H](Cc2c[nH]c3ccccc23)C(=O)N1)C(N)=O` [compound 216], for which the IC50 is > 7 µM and 5.4 µM at hNav1.5 [1]; more than 7 µM at hNav1.3; 4.7 µM and 6.6 µM at hNav1.7 [2]; more than 7 µM at hNav1.4 [3].

As for `CC[C@H](C)[C@H](NC(=O)[C@H](Cc1ccc(O)cc1)NC(=O)[C@H](CCCCN)NC(=O)[C@H](CCCNC(=N)N)NC(=O)[C@@H]1CSSC[C@@H]2NC(=O)[C@H](C)NC(=O)[C@H](CCCNC(=N)N)NC(=O)[C@H](CCCCN)NC(=O)[C@H](CO)NC(=O)[C@H](CC(=O)O)NC(=O)[C@@H]3CSSC[C@H](NC(=O)[C@H](CCC(=O)O)NC(=O)[C@H](CC(C)C)NC(=O)CNC(=O)[C@H](CCC(=O)O)NC(=O)[C@H](CSSC[C@H](NC(=O)[C@@H](N)Cc4ccc(O)cc4)C(=O)N[C@@H](CCC(N)=O)C(=O)N[C@@H](CCCCN)C(=O)N[C@@H](CCC(=O)O)C(=O)N[C@@H](CCSC)C(=O)N[C@@H](Cc4c[nH]c5ccccc45)C(=O)N[C@@H]([C@@H](C)O)C(=O)N3)NC2=O)C(=O)N[C@@H](CCCCN)C(=O)N[C@@H](CC(C)C)C(=O)N[C@@H](Cc2c[nH]c3ccccc23)C(=O)N1)C(N)=O` [compound 203], the IC50 on hNav1.5 [1], at hNav1.3, at hNav1.7 [2] and on hNav1.4 [3] was more than 7 µM throughout.

Take `CCCC[C@@H]1NC(=O)[C@H](Cc2c[nH]c3ccccc23)NC(=O)[C@H](CCCCN)NC(=O)[C@H](CCC(N)=O)NC(=O)[C@@H](NC(=O)[C@@H](N)Cc2ccc(O)cc2)CSSC[C@@H]2NC(=O)[C@@H]3CSSC[C@@H](C(=O)N[C@@H](CCCNC(=N)N)C(=O)N[C@@H](CCCCN)C(=O)N[C@H](C(=O)N[C@H](C(N)=O)[C@@H](C)CC)[C@@H](C)CC)NC(=O)[C@H](Cc4c[nH]c5ccccc45)NC(=O)[C@H](CC(C)C)NC(=O)[C@H](CCCCN)NC(=O)[C@H](CSSC[C@H](NC(=O)[C@H](Cc4cn(CCCOCCOCCOCCOCCOCCOCCOCCOCCOCCOCCN)nn4)NC(=O)[C@H](Cc4c[nH]c5ccccc45)NC1=O)C(=O)N[C@@H](CC(=O)O)C(=O)N[C@@H](CO)C(=O)N[C@@H](CCCCN)C(=O)N[C@@H](CCCNC(=N)N)C(=O)N[C@@H](C)C(=O)N3)NC(=O)[C@H](CCCNC(=N)N)NC(=O)[C@H](CC(C)C)NC(=O)CNC(=O)[C@H](CCC(=O)O)NC2=O` [compound 254]: the IC50 was more than 7 µM at hNav1.5 [1], more than 7 µM on hNav1.3, 6.4 µM on hNav1.7 [2] and more than 7 µM on hNav1.4 [3].

Consider `C#CC[C@H](N)C(=O)NCCOCCOCCOCCOCCC(=O)NCCCC[C@@H]1NC(=O)[C@@H]2CSSC[C@H](NC(=O)[C@@H](N)Cc3ccc(O)cc3)C(=O)N[C@@H](CCC(N)=O)C(=O)N[C@@H](CCCCN)C(=O)N[C@@H](Cc3c[nH]c4ccccc34)C(=O)N[C@@H](CCCC)C(=O)N[C@@H](Cc3c[nH]c4ccccc34)C(=O)N[C@@H]([C@@H](C)O)C(=O)N[C@H]3CSSC[C@H](NC(=O)[C@H](CCC(=O)O)NC(=O)[C@H](CC(C)C)NC(=O)CNC1=O)C(=O)N[C@@H](CCCCN)C(=O)N[C@@H](CC(C)C)C(=O)N[C@@H](Cc1c[nH]c4ccccc14)C(=O)N[C@H](C(=O)N[C@@H](CCCNC(=N)N)C(=O)N[C@@H](CCCCN)C(=O)N[C@H](C(=O)N[C@@H](Cc1c[nH]c4ccccc14)C(N)=O)[C@@H](C)CC)CSSC[C@H](NC(=O)[C@H](C)NC(=O)[C@H](CCCNC(=N)N)NC(=O)[C@H](CCCCN)NC(=O)[C@H](CO)NC(=O)[C@H](CC(=O)O)NC3=O)C(=O)N2` [compound 293], for which the IC50 worked out at 0.453 µM at hNav1.4 [4] (PatchXpress, tonic block, read-out: PX hNav1.4 Tonic IC50); 0.58 µM at hNav1.5 [5] (PatchXpress, tonic block, read-out: PX hNav1.5 Tonic IC50); 0.57 µM on hNav1.7 [6]; 0.041 µM at hNav1.7 [2]. For the same molecule, the Nav1.4/Nav1.7 at hNav1.4 [4] (ratio of PX tonic IC50 values) came out at 1. The Nav1.5/Nav1.7 on hNav1.5 [5] (ratio of PX tonic IC50 values) was determined as 1.

Turning to `CC[C@H](C)[C@H](NC(=O)CNC(=O)[C@H](CCCCN)NC(=O)[C@H](CCCNC(=N)N)NC(=O)[C@@H]1CSSC[C@@H]2NC(=O)[C@H](C)NC(=O)[C@H](CCCNC(=N)N)NC(=O)[C@H](CCCCN)NC(=O)[C@H](CO)NC(=O)[C@H](CC(=O)O)NC(=O)[C@@H]3CSSC[C@H](NC(=O)[C@H](CCC(=O)O)NC(=O)[C@H](CC(C)C)NC(=O)CNC(=O)[C@H](CCC(=O)O)NC(=O)[C@H](CSSC[C@H](NC(=O)[C@@H](N)Cc4ccc(O)cc4)C(=O)N[C@@H](CCC(N)=O)C(=O)N[C@@H](CCCCN)C(=O)N[C@@H](Cc4c[nH]c5ccccc45)C(=O)N[C@@H](CCSC)C(=O)N[C@@H](Cc4c[nH]c5ccccc45)C(=O)N[C@@H]([C@@H](C)O)C(=O)N3)NC2=O)C(=O)N[C@@H](CCCCN)C(=O)N[C@@H](CC(C)C)C(=O)N[C@@H](Cc2c[nH]c3ccccc23)C(=O)N1)C(N)=O` [compound 134], the IC50 is more than 5 µM at hNav1.3; 0.3 µM and 0.37 µM on hNav1.7 [2]; more than 5 µM at hNav1.4 [3]. On hNav1.4 [3], the Nav1.4/Nav1.7 was 17 and 13.

The record behind these values is US9636418B2 (priority 2013, dated 2017).
